Four compounds from PMC5750217 (Nature Communications, 2018) can be followed below.

One assay deals with T1, ASCT1 (Homo sapiens, UniProt P43007).
T1 construct: expressed in transfected cells; host or cells: Xenopus laevis oocytes (cRNA injection)
T1 sequence (P43007 1-532): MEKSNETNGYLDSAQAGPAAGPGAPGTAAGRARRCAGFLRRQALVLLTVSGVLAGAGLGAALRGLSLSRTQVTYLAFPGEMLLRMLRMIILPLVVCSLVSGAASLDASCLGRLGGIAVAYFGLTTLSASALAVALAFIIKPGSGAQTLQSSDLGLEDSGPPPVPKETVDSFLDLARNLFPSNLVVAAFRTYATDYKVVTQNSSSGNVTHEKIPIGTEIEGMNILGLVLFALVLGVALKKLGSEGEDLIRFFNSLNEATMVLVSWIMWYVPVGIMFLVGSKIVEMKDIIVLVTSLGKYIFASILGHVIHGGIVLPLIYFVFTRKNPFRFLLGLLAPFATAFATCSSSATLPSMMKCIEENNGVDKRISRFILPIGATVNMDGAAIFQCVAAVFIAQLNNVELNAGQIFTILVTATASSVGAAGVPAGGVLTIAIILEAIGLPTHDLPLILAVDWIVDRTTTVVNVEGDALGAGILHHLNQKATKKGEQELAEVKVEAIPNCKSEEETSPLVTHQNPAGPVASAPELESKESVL
Nature of the assay: Radiolabelled uptake in oocytes expressing ASCT1. In kind it is cell-based. The conditions noted are these: 10 µM radiolabelled substrate, 10 min, room temperature. On the procedure:
Uptake of L-[^3H]amino acids (PerkinElmer Life Sciences) was measured in oocytes expressing wild-type and mutant ASCT1, and uninjected oocytes. Five oocytes were incubated in Cl^−-containing buffer with 10 µM L-[^3H]amino acids at room temperature. After 10 min, uptake was terminated by three rapid washes in ice-cold Cl^−-containing buffer followed by lysis in 50 mM NaOH and 1% SDS. L-[^3H]amino acids were measured by scintillation counting using a Trilux beta counter (PerkinElmer Life Sciences).
Supplementary Figure 6. GltPh‐R397C, ASCT1 and ASCT2 are functional cysteine transporters. (a) […]
7.5) containing 1 µM of valinomycin and the 10µM 35S‐cysteine. […]
All data represent the mean of triplicate
(1 picture or pasted object on this page, not shown here)

Another assay has as its target T2, wild-type GltPh (Pyrococcus horikoshii, UniProt O59010).
T2 construct: hexa-His (N, cleaved yes); made in house; host or cells: Escherichia coli Top10 (pBAD)
T2 sequence (O59010 1-425): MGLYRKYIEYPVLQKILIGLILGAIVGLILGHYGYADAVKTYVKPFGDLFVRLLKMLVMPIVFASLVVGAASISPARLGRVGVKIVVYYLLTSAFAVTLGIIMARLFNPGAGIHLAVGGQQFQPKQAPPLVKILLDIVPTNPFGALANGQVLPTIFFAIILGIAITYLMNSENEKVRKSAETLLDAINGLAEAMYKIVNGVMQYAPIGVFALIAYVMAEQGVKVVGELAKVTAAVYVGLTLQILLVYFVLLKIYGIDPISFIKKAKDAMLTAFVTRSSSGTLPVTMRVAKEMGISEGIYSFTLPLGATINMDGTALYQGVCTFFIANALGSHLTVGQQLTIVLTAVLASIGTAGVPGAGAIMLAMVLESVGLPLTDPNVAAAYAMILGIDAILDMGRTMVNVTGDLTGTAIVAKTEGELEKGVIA
Nature of the assay: Proteoliposome transport assay, wild-type GltPh. The class given is biochemical. The conditions noted are these: for Transport of radiolabelled substrate into proteoliposomes (in words): 1 µM L-[3H]substrate, Na+ gradient, pH 7.5. On the procedure:
Mutant and wild-type GltPh with an amino-terminal hexa-His tag were expressed in Escherichia coli Top10 cells (Invitrogen), which were grown in Luria broth medium at 37 °C. Ampicillin was added to a final concentration of 100 μg per ml. To induce expression of GltPh, 0.1% L-arabinose was added when cells reached an optical density of 0.6 at 660 nm, and cells were harvested 4 h post induction. Membranes were isolated, and then solubilised with n-dodecyl-β-D-maltopyranoside (C12M, Anatrace). Histidine containing proteins were purified using Ni^2+−nitrilotriacetic acid resin (Qiagen). The histidine tag was subsequently removed from GltPh by digestion with thrombin (10 U per mg protein) and the protein further purified on a Superdex 200 size exclusion column, where the detergent was exchanged to n-decyl-β-D-maltopyranoside (C10M, Anatrace).
Pure protein was reconstituted into liposomes composed of 75% E. coli Polar Lipid Extract and 25% 1-palmitoyl-2-oleoyl-sn-glycero-3 ^−phopshocholine (Avanti Polar Lipids). Lipids were mixed, dried under nitrogen and resuspended in internal buffer (100 mM KCl, 20 mM HEPES-Tris pH 7.5) using brief sonication (Laboratory Supplies Co.). The lipid suspension was frozen in liquid nitrogen and thawed at room temperature several times. Liposomes were formed by extrusion through 400 nm polycarbonate membranes (Avanti Polar Lipids) and were treated with Triton X-100 at a 0.5:1 (w/w) detergent to lipid ratio prior to the addition of protein at 0.25 μg protein per mg lipid. The protein/lipid mixture was left at room temperature for 30 min before detergent was removed using SM2 Biobeads (BioRad). The mixture was then incubated with gentle agitation, with four consecutive batches of Biobeads (80 mg per ml). Proteoliposomes were concentrated by centrifugation at 150,000 g for 30 min, resuspended at 100 mg lipid per ml and either used immediately or flash-frozen in liquid nitrogen and stored at −80 °C.
Mutant and wild-type GltPh-mediated transport of radiolabelled substrate was assayed by diluting proteoliposomes (100 mg lipid per ml) 133-fold into uptake buffer (100 mM NaCl, 20 mM HEPES-Tris pH 7.5, 1 μM valinomycin, 100 nM–1 µM L-[^3H]substrate) pre-warmed to 30 °C. At each time point, a 200 µl aliquot was removed and diluted 10-fold into ice-cold quench buffer (100 mM LiCl, 20 mM HEPES-Tris pH 7.5), followed by immediate filtration over nitrocellulose filters (0.22 μm pore size, Millipore). The filters were washed with ice-cold quench buffer and assayed for radioactivity using a Trilux beta counter (PerkinElmer). To establish substrate concentration–response curves, extraliposomal L-[^3H]substrate was varied between 500 nM and 100 µM, maintaining NaCl concentrations at 300 mM. For inhibitor concentration–response curves, for wild-type GltPh 100 nM L-[^3H]aspartate, and for mutant GltPh 1 µM L-[^3H]serine, was co-applied with varying inhibitor concentrations. Background levels of uptake were measured by diluting proteoliposomes into internal buffer (100 mM KCl, 20 mM HEPES-Tris pH 7.5) containing 1 µM of valinomycin and the indicated concentrations of L-[^3H]substrate.

Molecules are shown by their SMILES.

With `N[C@@H](CO)C(=O)O` [L-serine], the “Radiolabelled substrate uptake into oocytes (in words)” value on ASCT1 is “observe L-[^3H]serine uptake”. The “Transport of radiolabelled substrate into proteoliposomes (in words)” value at wild-type GltPh is recorded as “not transported”. Take `N[C@@H](CS)C(=O)O` [L-cysteine]: the “Radiolabelled substrate uptake into oocytes (in words)” value on ASCT1 was “robust L-[^35S]cysteine uptake”.

In the case of `N[C@@H](CCC(=O)Nc1ccc([N+](=O)[O-])cc1)C(=O)O` [GPNA, glutamyl-p-nitroanilide], the “IC50 for inhibition of L-[3H]aspartate transport” value against wild-type GltPh (100 nM L-[3H]aspartate) is recorded as “ineffective”. As for `NC(=O)CC[C@H](N)C(=O)O` [L-glutamine], at ASCT1, the “Radiolabelled substrate uptake into oocytes (in words)” value was “no glutamine transport is observed”. Moreover, the “Transport of radiolabelled substrate into proteoliposomes (in words)” value at wild-type GltPh is “not transported”.
